Experimental data from US4209527A, “Benzimidazolone derivatives” (Pfizer Inc., priority 1979, dated 1980).
Structures can show the parent of a compound that is named as a salt.

tested on: not listed separately; experiment: solubility in water; assay type: physicochemical; conditions: amorphous powder, freeze-dried
Protocol: The sodium salt of 3-benzyl-2-oxo-1-benzimidazolineacetic acid is prepared by dissolving said compound in water containing an equivalent amount in moles of sodium hydroxide and then freeze-drying the mixture.

| Compound | solubility in water |
| --- | --- |
| O=C(O)Cn1c(=O)n(Cc2ccccc2)c2ccccc21 [Example 35, sodium salt of 3-benzyl-2-oxo-1-benzimidazolineacetic acid] | freely-soluble in water |

tested on: not listed separately; experiment: toxic side effects / untoward pharmacological side reactions; assay type: in vivo, rat; conditions: diabetic rats, oral, 2.5 mg./kg. to 25 mg./kg.
Source text: As previously indicated, the 3-(substituted methyl)-2-oxo-1-benzimidazolinealkanoic acid final products of this invention are all readily adapted to therapeutic use as aldose reductase inhibitors for the control of chronic diabetic complications, in view of their ability to reduce lens sorbitol levels in diabetic subjects to a statistically significant degree. […] Furthermore, the herein described compounds of this invention can be administered by either the oral or parenteral routes of administration, for the present purposes at hand, without causing any significant untoward pharmacological side reactions to occur in the subject to whom they are so administered. In general, these compounds are ordinarily administered in dosages ranging from about 0.25 mg. to about 25 mg. per kg. of body weight per day, although variations will necessarily occur depending upon the weight and condition of the subject being treated and the particular route of administration chosen.

| Compound | signs of toxic side effects |
| --- | --- |
| O=C(O)Cn1c(=O)n(Cc2ccccc2)c2ccccc21 [Example 15, 3-benzyl-2-oxo-1-benzimidazolineacetic acid] | without showing any substantial signs of toxic side effects |

biological target: T1, aldose reductase (Bos taurus, UniProt P16116); experiment: inhibition of aldose reductase enzyme activity (procedure of S. Hayman et al., modified by K. Sestanj et al.); assay type: biochemical; conditions: 10^-4 M; partially purified enzyme from calf lens
T1 construct: partially purified aldose reductase enzyme obtained from calf lens; from tissue; host or cells: calf lens
Protocol: The activity of the compounds of the present invention, as agents for the control of chronic diabetic complications, is determined by their ability to successfully pass one or more of the following standard biological and/or pharmacological tests, viz., (1) measuring their ability to inhibit the enzyme activity of isolated aldose reductase; (2) measuring their ability to reduce or inhibit sorbitol accumulation in the sciatic nerve of acutely streptozotocinized (i.e., diabetic) rats; (3) measuring their ability to reverse already-elevated sorbitol levels in the sciatic nerve and lens of chronic streptozotocin-induced diabetic rats; (4) measuring their ability to prevent or inhibit galactitol formation in the lens of acutely galactosemic rats and (5) measuring their ability to delay cataract formation and reduce the severity of lens opacities in chronic galactosemic rats.
The following 3-(substituted methyl)-2-oxo-1-benzimidazolinealkanoic acid final products of Examples 15-24 and 26-28, respectively, were tested at a concentration level of 10^-4 M for their ability to reduce or inhibit aldose reductase enzyme activity via the procedure of S. Hayman et al., as described in the Journal of Biological Chemistry, Vol. 240, p. 877 (1965) and as modified by K. Sestanj et al. in U.S. Pat. No. 3,821,383. In every case, the substrate employed was partially purified aldose reductase enzyme obtained from calf lens.

| inhibition at 100 µM | Compound |
| --- | --- |
| 86% | Cc1ccc(Cn2c(=O)n(CC(=O)O)c3ccccc32)cc1 [Example 16, 3-(p-xylyl)-2-oxo-1-benzimidazolineacetic acid] |
| 88% | O=C(O)Cn1c(=O)n(Cc2ccc(Cl)cc2)c2ccccc21 [Example 17, 3-(p-chlorobenzyl)-2-oxo-1-benzimidazolineacetic acid] |
| 88% | COc1ccc(Cn2c(=O)n(CC(=O)O)c3ccccc32)cc1 [Example 18, 3-(p-methoxybenzyl)-2-oxo-1-benzimidazolineacetic acid] |
| 89% | O=C(O)Cn1c(=O)n(Cc2ccc(Cl)c(Cl)c2)c2ccccc21 [Example 19, 3-(3,4-dichlorobenzyl)-2-oxo-1-benzimidazolineacetic acid] |
| 87% | O=C(O)Cn1c(=O)n(Cc2ccc(Cl)cc2Cl)c2ccccc21 [Example 20, 3-(2,4-dichlorobenzyl)-2-oxo-1-benzimidazolelineacetic acid] |
| 92% | O=C(O)Cn1c(=O)n(Cc2cccc3ccccc23)c2ccccc21 [Example 21, 3-(α-naphthyl)methyl-2-oxo-1-benzimidazolineacetic acid] |
| 86% | O=C(O)Cn1c(=O)n(Cc2ccc3ccccc3c2)c2ccccc21 [Example 22, 3-(β-naphthyl)methyl-2-oxo-1-benzimidazolineacetic acid] |
| 71% | O=C(O)Cn1c(=O)n(CC(=O)c2ccc(Cl)cc2Cl)c2ccccc21 [Example 23, 3-(2,4-dichlorobenzoylmethyl)-2-oxo-1-benzimidazolineacetic acid] |
| 89% | O=C(O)Cn1c(=O)n(Cc2ccccc2)c2cc(Cl)c(Cl)cc21 [Example 24, 3-benzyl-5,6-dichloro-2-oxo-1-benzimidazolineacetic acid] |
| 82% | O=C(O)Cn1c(=O)n(Cc2ccc(Cl)c(Cl)c2)c2cc(Cl)c(Cl)cc21 [Example 26, 3-(3,4-dichlorobenzyl)-5,6-dichloro-2-oxo-1-benzimidazolineacetic acid] |
| 91% | CC(C(=O)O)n1c(=O)n(Cc2ccc(Cl)c(Cl)c2)c2ccccc21 (stereo not drawn) [Example 27, α-[3-(3,4-dichlorobenzyl)-2-oxo-1-benzimidazoline]propionic acid] |
| 90% | O=C(O)CCn1c(=O)n(Cc2ccc(Cl)c(Cl)c2)c2ccccc21 [Example 28, β-[3-(3,4-dichlorobenzyl)-2-oxo-1-benzimidazoline]propionic acid] |

| Compound | inhibition at 100 µM |
| --- | --- |
| O=C(O)Cn1c(=O)n(Cc2ccccc2)c2ccccc21 [Example 15, 3-benzyl-2-oxo-1-benzimidazolineacetic acid] | 84% |
